# Experimental data reported in patent US12485073B2, “Oral care compositions and methods of use” (Colgate-Palmolive Company, priority 2019, dated 2025).
# Tests used:
# [1] = 1H NMR analysis of MeSA hydrolysis in aqueous alkaline solution; format: physicochemical; conditions: for effect of added amino acid or derivative on MeSA hydrolysis rate: pH 9.0, aqueous solution (FIG. 4, 7, 8); for ester hydrolysis: with or without Gly at pH 9.0, within 48 hours (FIG. 4)
# Source text: Direct detection and quantification of MeSA in aqueous solution is challenging due to its low water solubility. While ^1H NMR provides structural and quantitative information of the specific substrate in the aqueous mixture, the greatest limitation of NMR is its poor sensitivity. […] Typically, a high concentration of substrate is needed for NMR quantitative analysis. However, to quantify a substrate by NMR at concentrations at or below about 0.1 wt. % in water is not possible without effective solvent suppression. To overcome this hurdle, composite n/2 pulses were applied prior to pre-saturation pulses to effectively suppress the water peak of the sample.
# Studies were conducted to test how pH affects MeSA hydrolysis.
# Next, the phenolic hydroxyl group was examined to test whether it affects hydrolysis of MeSA at basic pH. The hydrolysis of two analogue compounds, namely, methyl benzoate and methyl paraben were studied as comparators.
# The t-butyloxycarbonyl (BOC) and methyl ester groups are routinely used in peptide synthesis to protect amine and carboxyl group of amino acid from reaction.
# [2] = Methyl salicylate concentration versus pH in presence of arginine, UV/Vis (FIG. 9); format: physicochemical
# Source text: As shown, degradation of methyl salicylate can be substantially mitigated even in the presence of an amino acid under accelerated aging conditions. A curve for the relationship between pH and the above compositions is illustrated in FIG. 9.
Compound,effect of added amino acid or derivative on MeSA hydrolysis rate [1],ester hydrolysis [1],also measured
"COC(=O)CNC(=O)OC(C)(C)C [Boc-Gly methyl ester, reference compound]",significantly reduces to the same level as that of MeSA without Gly,–,–
"CC(C)(C)OC(=O)NCC(=O)O [Boc-Gly-OH, reference compound]",much faster than that of MeSA alone,–,–
"COC(=O)CN [Gly methyl ester, reference compound]",slightly faster than that of MeSA only,–,–
"COC(=O)c1ccccc1O [MeSA, Methyl salicylate]",–,significant hydrolysis,"MeSA degradation ([2]; pH 7.5): dramatically increases; preservation of MeSA ([2]; pH at 6.5 or 7.0): good preservation; reduction of peak intensity of the methyoxy group of MeSA ([1]; after 12 hr hydrolysis, 0.05 wt % MeSA + 0.025 wt % glycine, pH 9.0, 25° C.): about 30%; degradation of MeSA concentration (hydrolysis rate) as solution is more basic ([1]; water without amino acid, pH range 8 to 11.5 (FIG. 3)): becomes faster; MeSA hydrolysis ([1]; with Gly at pH 7.0): drastically reduced"
NCCCC[C@H](N)C(=O)O [lysine],accelerate the degradation of MeSA,–,–
"COC(=O)c1ccccc1 [methyl benzoate, reference compound]",–,no ester hydrolysis,–
"COC(=O)c1ccc(O)cc1 [methyl paraben, reference compound]",–,no ester hydrolysis,–
